Measurements reported in patent US11000537B2, “Composition comprising novel ginsenoside” (AMOREPACIFIC CORPORATION, priority 2018, dated 2021).

Legend:
[1] = system: ACC (acetyl-CoA carboxylase); assay: ACC gene expression in HepG2 (qPCR); assay type: cell-based; details: 24 hours
Protocol: The hepatocyte cell line HepG2 purchased from the International Center for Biological Resources (ATCC) were placed in Dulbecco's Modified Eagle's Medium (Sigma) to which 10% fetal bovine serum (Hyclone) and 1% penicillin/streptomycin (Sigma) were added, and cultured in a 5% CO2 incubator. As a positive control, fenofibrate (FF, Sigma), which is used as an antihyperlipidemic drug, was used, and 7 kinds of ginsenosides (GS #01-GS #06, GS #10; 10 μM each) extracted from Ginseng seed were used for the experiment. After 24 hours of treatment, cells were collected, RNA was extracted using Trizol™ reagent (Thermo Fisher Scientific), and cDNA was synthesized using RevertAid™ 1st strand cDNA synthesis kit (Thermo Fisher Scientific). Bio-Rad's CFX96 real-time quantitative PCR (qPCR) instrument was used to observe the expression of the genes SREBP1c (sterol-regulatory element binding protein 1c), ACC (acetyl-CoA carboxylase) and FAS (Fatty acid synthase), which induces fat synthesis or accumulation.

[2] = system: human umbilical vein endothelial cells (HUVEC); assay: nitric oxide (NO) production in vascular endothelial cells; assay type: cell-based
From the text: Since nitric oxide is made by […] nitric oxide synthase (eNOS), in this experiment, it was confirmed whether the novel ginsenoside GS #10 of the example of the present disclosure can promote the production of nitric oxide through eNOS activity control in vascular endothelial cells. Specifically, the human umbilical vein endothelial cells (HUVEC) were purchased from the International Center for Biological Resources (ATCC) and cultured, and then the amount of nitric oxide (NO) produced by treating the novel ginsenoside GS #10 at a concentration of 1 to 10 μg/ml was measured.

[3] = system: human umbilical vein endothelial cells (HUVECs); assay: survival rate of vascular endothelial cells (MTT); assay type: cell-based
Protocol: In this experiment, it was confirmed whether the novel ginsenoside GS #10 of an embodiment of the present disclosure can increase the survival rate of vascular endothelial cells. Specifically, human umbilical vein endothelial cells (HUVECs) were purchased from the International Center for Biological Resources (ATCC) and cultured, and then the novel ginsenoside GS #10 was treated at a concentration of 1-10 μg/ml and MTT(3-(4,5-dimethylthiazol-2-yl)-2,5-diphenyltetrazolium bromide) analysis was performed to observe cell death.

[4] = system: α-glucosidase; assay: α-glucosidase enzyme activity inhibition; assay type: biochemical
Protocol: As a polysaccharide degrading enzyme, pancreatic α-amylase and α-glucosidase were purchased from Sigma, and the enzyme activity of novel ginsenoside GS #10, which is an example of the present disclosure, isolated from Ginseng seed extract and ginsenosides GS #01-GS #06, which are comparative examples of the present disclosure, was measured. In order to measure α-amylase activity, enzyme solution was prepared by dissolving BSA 0.1 g, 0.01 g/L NaN3, α-amylase 0.2857 g in 50 mL of PBS (phosphate buffered saline), and 5 mM of p-nitrophenyl-α-D-maltopentoglycoside was dissolved in another PBS to make a substrate solution. 0.1 mL of the test substance was added to 0.5 mL of the enzyme solution, and then the initial absorbance was measured at 405 nm. After adding 0.5 mL of the substrate solution and reacting it for 5 minutes, the absorbance was measured again. The change in enzyme activity was measured by the difference in absorbance between the two reactions. The method for measuring α-glucosidase activity is the same as the method for measuring α-amylase activity, and differs only in α-glucosidase and substrate (p-nitrophenyl-α-D-glucopyranoside). As a positive control to observe the inhibition of enzyme activity, acarbose, which is an α-amylase inhibitor and α-glucosidase inhibitor derived from wheat seed sold by Sigma, was used.

CC1(C)C(=O)CC[C@@]2(C)C1[C@@H](O[C@H]1OC(CO)[C@H](O)C(O)C1O[C@H]1OC(CO)[C@H](O)C(O)C1O)C[C@]1(C)C2C[C@@H](O)C2C([C@]3(C)CC[C@H](C(C)(C)O)O3)CC[C@]21C (stereo partly drawn) [GS #10, (20S,24R)-6-O-β-D-glucopyranosyl(1→2)-β-D-glucopyranoside-dammar-3-one-20,24-epoxy-6a,12b,25-triol]
ACC expression inhibitory effect ([1]; 10 μM, HepG2, FIG. 19): significantly higher expression inhibitory effect
ACC expression inhibitory effect ([1]; 1, 10 μM, compared with Rg1, Rg3, Rb1, FIG. 24): far superior in lipid metabolism inhibitory effect
NO production efficacy relative to ginsenoside Re (GS #03) ([2]; 10 μg/ml, HUVEC, FIG. 43): ≥ 2 times
NO production-increasing effect ([2]; 10 μg/ml, HUVEC, compared with GS #01 to GS #06, FIG. 43): significantly greater NO production-increasing effect
increased production of nitric oxide (NO) ([2]; 10 μg/ml, compared with Rg1, Rg3, Rb1, FIG. 46): far superior
nitric oxide (NO) production ([2]; 1 to 10 μg/ml, HUVEC, FIG. 42): increase NO production in a concentration-dependent manner
survival rate-increasing effect of vascular endothelial cells ([3]; 10 μg/ml, MTT, compared with GS #01-GS #06, FIG. 45): highest survival rate-increasing effect of vascular endothelial cells
increased survival rate of vascular endothelial cells (HUVEC) ([3]; 10 μg/ml, compared with Rg1, Rg3, Rb1, FIG. 47): far superior
survival rate of HUVEC ([3]; 1-10 μg/ml, MTT, FIG. 44): increase the survival rate of HUVEC regardless of the concentration
α-glucosidase activity inhibitory effect ([4]; 1, 10 μM, compared with ginsenosides Rg1, Rg3, Rb1, FIG. 15): much superior
α-glucosidase activity inhibitory effect ([4]; Test Example 1, FIG. 12, ginseng seed ginsenosides compared): high inhibitory effect on α-glucosidase activity
